# Values joined by “and” are separate entries in the source; they are usually repeats but may differ in a detail not shown here. Equal values may be shown once.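 Following 48 hours of exposure in 96-well plates, responses at five concentrations were used to interpolate endpoints linearly. GI50 marks 50% less growth. TGI: total growth inhibition.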
# Assays:
# Assay in all cases: growth of human tumour cells (NCI), 48 h
# A549 NSCLC = test system: A549 NSCLC
# BT-549 breast = test system: BT-549 breast
# DU-145 prostate = test system: DU-145 prostate
# MCF7 breast = test system: MCF7 breast
# NCI-H226 lung = test system: NCI-H226 lung
# OVCAR-3 ovarian = test system: OVCAR-3 ovarian
# SF-539 CNS = test system: SF-539 CNS
# SK-MEL-2 melanoma = test system: SK-MEL-2 melanoma
# SK-MEL-28 melanoma = test system: SK-MEL-28 melanoma
# SK-MEL-5 melanoma = test system: SK-MEL-5 melanoma
Structure (SMILES),GI50 (A549 NSCLC) [µM],TGI (A549 NSCLC) [µM],GI50 (BT-549 breast) [µM],TGI (BT-549 breast) [µM],GI50 (DU-145 prostate) [µM],TGI (DU-145 prostate) [µM],GI50 (MCF7 breast) [µM],TGI (MCF7 breast) [µM],GI50 (NCI-H226 lung) [µM],TGI (NCI-H226 lung) [µM],GI50 (OVCAR-3 ovarian),TGI (OVCAR-3 ovarian),GI50 (SF-539 CNS),TGI (SF-539 CNS),GI50 (SK-MEL-2 melanoma),TGI (SK-MEL-2 melanoma),GI50 (SK-MEL-28 melanoma),TGI (SK-MEL-28 melanoma) [µM],GI50 (SK-MEL-5 melanoma) [µM],TGI (SK-MEL-5 melanoma) [µM]
CCc1n(Cc2ccc3ccccc3c2)cc[n+]1Cc1ccc2ccccc2c1,2.59,13.9,0.674,2.12,0.965,4.23,0.384,1.8,1.08,3.82,0.466 µM,1.74 µM,0.8 µM,2.3 µM,0.534 µM,2.14 µM,0.581 µM,2.06,0.361,1.28
O=C1C=C(c2ccccc2)NC1(c1ccccc1)c1cc(-c2ccccc2)[nH]c1-c1ccccc1 (centres undefined),,> 100,,,,,,,,,,> 100 µM,,> 100 µM,,> 100 µM,,> 100,,
C[C@H]1CCC/C=C/[C@@H]2C[C@H](O)C[C@H]2[C@H](O)C(O)C(O)C(=O)O1 (some centres undefined),4.54,> 100,2.72,> 100,6.69,> 100,2.64,> 20.1,0.189,0.399,2.35 µM,20.1 µM,0.677 µM,> 100 µM,3.81 µM,> 23.9 µM,1.25 µM,> 100,0.362,
COc1ccc(-c2cc(-c3ccco3)c(C#N)c(=O)n2C2OC(COC(C)=O)C(OC(C)=O)C(OC(C)=O)C2OC(C)=O)cc1 (centres undefined),,> 100,,,,,,,,,> 100 µM and 18.1 µM,> 100 µM and 44.3 µM,> 100 µM and 11.7 µM,> 100 µM and 23.9 µM,> 100 µM and 14.5 µM,> 100 µM and 50.8 µM,> 100 µM and 26.7 µM,> 100,,> 100
NNC(=O)C(=O)N/N=C1\CCCC1C(=O)CCC(=O)Nc1cccc(Cl)c1 (centres undefined),,> 100,,,,,,,,> 100,,> 100 µM,,,,> 100 µM,,> 100,,> 100
CCCOC(=O)C1C(c2ccc(OC)cc2)NC(c2ccc(OC)cc2)C(C(=O)OCCC)S1(=O)=O (centres undefined),> 100,> 100,,,,,,,> 100,> 100,> 100 µM,> 100 µM,> 100 µM,> 100 µM,> 100 µM,> 100 µM,> 100 µM,> 100,> 100,> 100
Cc1cc(N)c2cc(NC(=O)/C=C\c3ccccc3Cl)ccc2n1,1.71,3.25,1.58,3.01,1.45,2.87,,,2.01,3.69,1.31 µM,2.7 µM,1.69 µM,3.07 µM,1.83 µM,3.34 µM,0.447 µM,0.886,1.46,2.8
CC1=C(C(=O)Nc2cc(F)c(F)cc2F)C(c2ccc(N(C)C)cc2)C(C(=O)Nc2cc(F)c(F)cc2F)=C(C)N1,,> 60.5,,,49.4,> 100,16.3,> 100,,> 92.9,,49.7 µM,,> 74.1 µM,,> 100 µM,,> 100,,> 74.3
CCCCCCCCCCCCNCCCc1ccccc1,1.78,3.35,1.75,3.19,1.92,3.51,1.81,3.35,1.87,3.61,1.79 µM,3.18 µM,1.89 µM,3.32 µM,,,1.72 µM,3.23,1.73,3.11
C=CCN=C1NC(=O)C(CC(=O)Nc2ccc([N+](=O)[O-])cc2[N+](=O)[O-])S1 (centres undefined),,> 100,,,,,,,,> 100,,> 100 µM,,> 100 µM,,> 100 µM,,> 100,,> 100
O=C1CC2=CCCC2O1 (centres undefined),,> 100,,,,,,,,,,> 100 µM,,> 100 µM,,> 100 µM,,> 100,,> 100
NNC(=S)N/N=C(\c1nc2ccc(Cl)cc2[nH]c1=O)C(O)c1cccc([N+](=O)[O-])c1 (centres undefined),,> 100,,,,,,,,> 100,,> 100 µM,,> 47.5 µM,,> 100 µM,,> 79.4,,> 100
O=C1CC[C@@H]2[C@H]3CCC(=O)c4c3c(c3cccc(O)c3c4O)O[C@@]23C(=O)c2cccc(O)c2C(O)=C13,> 100,> 100,> 100,> 100,> 100,> 100,> 100,> 100,> 100,> 100,,,> 100 µM,> 100 µM,74.4 µM,> 100 µM,> 100 µM,> 100,> 100,> 100
COC(=O)N1C=CC2=C(C)C3Nc4ccccc4C3C(C)=C2C1 (centres undefined),,16.8,,,,,,,,5.1,,3.69 µM,,17.2 µM,,2.95 µM,,> 100,,37.2
CC(C)OC(=O)NNc1c(Cl)cc(Cl)cc1Cl,,> 100,,> 100,,> 100,,> 100,,,,> 100 µM,,> 100 µM,,> 100 µM,,> 100,,60.5
CC[P+](C)(C)CC,,> 100,,,,,,,,> 100,,> 100 µM,,> 100 µM,,> 100 µM,,> 100,,> 100
C=CCC(NCc1ccccc1)c1cn(C(=O)OCC)c2ccccc12 (centres undefined),31.5,> 100,21.3,46.9,20.8,60.7,51.8,> 100,,,17.3 µM,33.7 µM,5.47 µM,18.8 µM,33.1 µM,> 100 µM,41.5 µM,> 100,13.9,28
N/N=C1\C(=O)N(c2ccc(Cl)c(Cl)c2)C(=O)C1C(=O)Nc1ccc(Cl)c(Cl)c1 (centres undefined),,> 100,,,,,,,,,,> 100 µM,,> 100 µM,,> 100 µM,,> 100,,69.6
NC(=O)c1c(-c2ccccc2)c(-c2ccccc2)cc2c(=O)c3ccccc3[nH]c12,,50.6,,,,,,,,,,46.4 µM,,37.4 µM,,45.1 µM,,37.6,,32.2
CC[C@@]1(O)C(=O)OCc2c1cc1n(c2=O)Cc2cc3c(N)c(OC)ccc3nc2-1,0.0445,1.91,,,,,,,1.77,> 100,0.328 µM,1.65 µM,0.0139 µM,0.0932 µM,0.439 µM,1.47 µM,0.466 µM,,0.0739,0.234
CC(C)CC1CC2C(=O)N(c3ccccc3)C(=O)C2c2[nH]c3ccccc3c21 (centres undefined),,> 53.8,,,,,,,,66.1,,42.7 µM,,99.4 µM,,59.8 µM,,> 55.7,,> 100

Structure (SMILES),GI50 (A549 NSCLC) [µM],TGI (A549 NSCLC) [µM],GI50 (BT-549 breast) [µM],TGI (BT-549 breast) [µM],GI50 (DU-145 prostate) [µM],TGI (DU-145 prostate) [µM],GI50 (MCF7 breast) [µM],TGI (MCF7 breast) [µM],GI50 (NCI-H226 lung) [µM],TGI (NCI-H226 lung) [µM],GI50 (OVCAR-3 ovarian),TGI (OVCAR-3 ovarian),GI50 (SF-539 CNS),TGI (SF-539 CNS),GI50 (SK-MEL-2 melanoma),TGI (SK-MEL-2 melanoma),GI50 (SK-MEL-28 melanoma),TGI (SK-MEL-28 melanoma) [µM],GI50 (SK-MEL-5 melanoma) [µM],TGI (SK-MEL-5 melanoma) [µM]
CCOC(=O)C(c1ccsc1)P(=O)(OCC)OCC (centres undefined),,55.8,,,,,,,,35.8,,26.9 µM,,30.2 µM,,39.9 µM,,32.4,,29.4
COc1ccc(C)cc1-c1ccc(-c2cc(C)ccc2OC)o1,,> 100,,,,,,,,> 100,,> 100 µM,,> 100 µM,,> 100 µM,,> 100,,
CC1(C)CCOC(Sc2ccccc2)C1 (centres undefined),,> 100,,,,,,,,,,> 100 µM,,,,69.9 µM,,> 100,,52.9
O=C(/C=C/c1cccc(Cl)c1)c1ccccc1,14.9,29.3,,,11.7,24.2,1.68,10.3,14.4,29.6,4.09 µM,15.4 µM,13.6 µM,28.8 µM,,,15.9 µM,30.2,13.2,26.3
O=S(=O)(c1ccccc1)C1(C2(S(=O)(=O)c3ccccc3)CCN=N2)CCN=N1 (centres undefined),,> 100,,,,,,,,> 100,,> 100 µM,,> 100 µM,,> 100 µM,,> 100,,
COc1cc2c(cc1OCCCN1CCN(CCCOc3cc4c(cc3OC)C(=O)N3C[C@H](F)C[C@H]3C=N4)CC1)N=C[C@@H]1C[C@@H](F)CN1C2=O,,,0.113,0.464,0.083,6.16,< 0.0195,> 32.7,,,0.119 µM,2.91 µM,0.0216 µM,1.23 µM,0.394 µM,3.29 µM,0.0713 µM,0.343,,
Cc1nc2ccccc2c(/C=C/c2ccc(C(F)(F)F)cc2)c1C(=O)/C=C/c1ccccc1,1.79,4.73,,,1.6,3.1,,,1.6,3.14,1.2 µM,2.52 µM,1.72 µM,3.13 µM,1.76 µM,3.64 µM,1.77 µM,3.22,1.69,3.05
O=S(=O)([O-])c1ccc(C=Nc2ccccc2)c([O-])c1.O=S(=O)([O-])c1ccc(C=Nc2ccccc2)c([O-])c1.[Co+2],55.2,> 100,,,,,,,17.7,> 100,> 100 µM,> 100 µM,32.6 µM,> 100 µM,77.8 µM,> 100 µM,> 100 µM,> 100,,
CCOC(=O)N1C/C(=C\c2ccc(N(C)C)cc2)C(=O)/C(=C/c2ccc(N(C)C)cc2)C1,,> 100,,,,,,,,,,> 100 µM,,> 100 µM,,> 100 µM,,> 100,,> 100
O=[N+]([O-])C(=C1c2ccccc2-c2ccccc21)[N+](=O)[O-],,> 100,,,,,,,,> 100,,> 100 µM,,> 100 µM,,> 100 µM,,> 100,,
Nc1ncnc2c1ncn2C1(CO)OC(CO)C(O)C1O (centres undefined),,> 100,,,,,,,,> 100,,,,,,> 100 µM,,> 100,,> 100
CN1C=C(C(N)=O)Cc2ccsc21,,> 100,,,,,,,,> 100,,> 100 µM,,> 100 µM,,> 100 µM,,> 100,,> 100
Cc1nc2sc(C(=O)Nc3cccc4c3OCCO4)c(N)c2cc1C(C)O (centres undefined),6.25,> 100,,,8.31,> 100,2.11,> 100,> 100,> 100,3.6 µM,> 100 µM,2.96 µM,13.8 µM,,,> 100 µM,> 100,4.82,> 100
CCCCCCCCCCCCNC(=S)OCCCC,,> 100,,,,,,,,,,,,> 100 µM,,62.2 µM,,> 100,,> 100
Cc1ccc(C)c(NC(=O)C(=O)C(C2C(C)CC(=O)C2CC(=O)O)[N+](=O)[O-])c1 (centres undefined),,> 100,,,,,,,,> 100,,> 100 µM,,> 100 µM,,> 100 µM,,> 100,,> 100
O=C(OCc1ccccc1)N1N=NC2C3CC(OCc4ccccc4)(OCc4ccccc4)C(O3)C21 (centres undefined),,> 100,,,,,,,,41.8,,59.6 µM,,> 100 µM,,33 µM,,55.1,,
O=[N+]([O-])c1cc2c(ccc3ccccc32)o1,0.413,3.12,,,0.341,4.81,0.212,3.01,1.27,4.22,1.31 µM,4.64 µM,0.617 µM,2.97 µM,0.202 µM,0.416 µM,0.21 µM,0.585,0.141,0.296
COc1ccc(/C(=N/O)c2cc(F)c(F)c(OC)c2F)cc1O,1.06,> 100,,,1.88,> 100,0.329,> 100,15.8,> 100,0.345 µM,16.5 µM,0.427 µM,5.27 µM,0.421 µM,> 100 µM,10.8 µM,> 100,0.599,17.3
CC1Nc2ccccc2NC1C=C(C#N)C#N (centres undefined),,54.1,,,,,,,,36.9,,29.4 µM,,26 µM,,37.7 µM,,31,,32.4
Cc1ncc2c(n1)CCC1=C2OS(=O)(=O)CC1N(C)C (centres undefined),,> 100,,> 100,,> 100,,> 100,,> 100,,> 100 µM,,> 100 µM,,,,> 100,,> 100

# — PubChem BioAssay (NCI)
